In article PMC7859440, “Transporter Gene Regulation in Sandwich Cultured Human Hepatocytes Through the Activation of Constitutive Androstane Receptor (CAR) or Aryl Hydrocarbon Receptor (AhR)” (Frontiers in Pharmacology, 2021):
Several values for one entry are separate records, joined by “and”; a condition that tells them apart may be missing. Equal entries are not always repeated.

What was measured:
[1] = tested on: UGT1A1; assay: gene induction in sandwich-cultured human hepatocytes (qRT-PCR)
Protocol: (§1) Cryopreserved human hepatocytes were quickly thawed at 37°C and then transferred into hepatocyte thawing medium. Cells were pelleted at 100 × g for 10 min and then resuspended in hepatocyte complete plating medium (CP medium). The cells were then seeded at 65,000 cells per well in 96-well collagen I coated plates. After cell attachment (4–6 h post-seeding), CP medium was exchanged for ice-cold complete incubation medium (HI medium) containing BD Matrigel™ at the concentration of 0.25 mg/ml. The cells were then incubated overnight at 37°C in a humidified 5% CO2 incubator. […] Cell death or loss of adhesion of hepatocytes during or after treatment were examined by microscopy.
(§2) A RNeasy 96 Kit (Qiagen) was used to extract the total cellular RNA from sandwich cultured hepatocytes in 96-well plates following the manufacturer's instructions. A total volume of 200 μL RNA was obtained via the column elution provided in the RNeasy kit. Five μL RNA extraction was mixed with TaqMan® Fast Virus 1-Step Master Mix (Life Technologies) in a final reaction volume of 20 μL and qRT-PCR was achieved using a QuantStudio 6 Flex Real-Time PCR System (Life Technologies), following the manufacturer's instructions. β-actin mRNA expression in the SCHH was used as a house-keeping gene for the normalization of target gene expressions. The mRNA levels in SCHH treated with AhR or CAR activators were expressed by a fold change, compared to the gene expressions without the treatment. The 2^−ΔΔCt method ([Livak and Schmittgen, 2001]) was used to analyze the relative changes in gene expression, where the Ct is the cycle number at which the fluorescence in the reaction crosses the preset arbitrary threshold; the ΔCt represents the difference between the Ct target and reference and the ΔΔCt is the difference between the ΔCt of the test and the ΔCt of the preassigned control. Gene expression for each condition is expressed as a fold-change of mean ± standard deviation (SD) from three independent donors (each performed in triplicate). All primer and probe sets were purchased from Life Technologies (Table 2). When concentration-dependent induction observed, the in vitro induction mRNA data were fitted using the sigmoid 3-parameter equation in GraphPad Prism (La Jolla, CA) to estimate the in vitro concentration of inducer that produced half the maximum induction values (EC50).

[2] = tested on: SLC22A7 (OAT2); assay: as above; type: cell-based; conditions: SCHH, 72 h; TCDD 50 nM, OP 50 µM, CITCO 5 µM, PB 1,000 µM (highest conc.); mean ± SD, three donors
Text: (§3) A RNeasy 96 Kit (Qiagen) was used to extract the total cellular RNA from sandwich cultured hepatocytes in 96-well plates following the manufacturer's instructions. […] The 2^−ΔΔCt method ([Livak and Schmittgen, 2001]) was used to analyze the relative changes in gene expression, where the Ct is the cycle number at which the fluorescence in the reaction crosses the preset arbitrary threshold; the ΔCt represents the difference between the Ct target and reference and the ΔΔCt is the difference between the ΔCt of the test and the ΔCt of the preassigned control. Gene expression for each condition is expressed as a fold-change of mean ± standard deviation (SD) from three independent donors (each performed in triplicate). […]

[3] = tested on: SLC29A1 (ENT1); assay: as above; type: cell-based; conditions: SCHH, 72 h; TCDD 50 nM, OP 50 µM, CITCO 5 µM, PB 1,000 µM (highest conc.); mean ± SD, three donors
Text: as §3

[4] = tested on: CYP1A2; conditions: SCHH, 72 h; TCDD 50 nM, OP 50 µM, CITCO 5 µM, PB 1,000 µM (highest conc.); mean ± SD, three donors
Protocol: as §1
A RNeasy 96 Kit (Qiagen) was used to extract the total cellular RNA from sandwich cultured hepatocytes in 96-well plates following the manufacturer's instructions. A total volume of 200 μL RNA was obtained via the column elution provided in the RNeasy kit. […] Gene expression for each condition is expressed as a fold-change of mean ± standard deviation (SD) from three independent donors (each performed in triplicate). […]

[5] = tested on: SLC22A5 (OCTN2); assay: gene induction in sandwich-cultured human hepatocytes (qRT-PCR); type: cell-based; conditions: SCHH, 72 h; TCDD 50 nM, OP 50 µM, CITCO 5 µM, PB 1,000 µM (highest conc.); mean ± SD, three donors
Text: as §3

[6] = tested on: SLC51A (OSTα); assay: as above; type: cell-based; conditions: SCHH, 72 h; TCDD 50 nM, OP 50 µM, CITCO 5 µM, PB 1,000 µM (highest conc.); mean ± SD, three donors
Text: as §3

[7] = tested on: SLC10A1 (NTCP); assay: as above; type: cell-based; conditions: SCHH, 72 h; TCDD 50 nM, OP 50 µM, CITCO 5 µM, PB 1,000 µM (highest conc.); mean ± SD, three donors
Protocol: A RNeasy 96 Kit (Qiagen) was used to extract the total cellular RNA from sandwich cultured hepatocytes in 96-well plates following the manufacturer's instructions. A total volume of 200 μL RNA was obtained via the column elution provided in the RNeasy kit. Five μL RNA extraction was mixed with TaqMan® Fast Virus 1-Step Master Mix (Life Technologies) in a final reaction volume of 20 μL and qRT-PCR was achieved using a QuantStudio 6 Flex Real-Time PCR System (Life Technologies), following the manufacturer's instructions. β-actin mRNA expression in the SCHH was used as a house-keeping gene for the normalization of target gene expressions. The mRNA levels in SCHH treated with AhR or CAR activators were expressed by a fold change, compared to the gene expressions without the treatment. The 2^−ΔΔCt method ([Livak and Schmittgen, 2001]) was used to analyze the relative changes in gene expression, where the Ct is the cycle number at which the fluorescence in the reaction crosses the preset arbitrary threshold; the ΔCt represents the difference between the Ct target and reference and the ΔΔCt is the difference between the ΔCt of the test and the ΔCt of the preassigned control. Gene expression for each condition is expressed as a fold-change of mean ± standard deviation (SD) from three independent donors (each performed in triplicate). […] When concentration-dependent induction observed, the in vitro induction mRNA data were fitted using the sigmoid 3-parameter equation in GraphPad Prism (La Jolla, CA) to estimate the in vitro concentration of inducer that produced half the maximum induction values (EC50).

[8] = tested on: SLC16A1 (MCT1); assay: as above; type: cell-based; conditions: SCHH, 72 h; TCDD 50 nM, OP 50 µM, CITCO 5 µM, PB 1,000 µM (highest conc.); mean ± SD, three donors
Text: as §3

[9] = tested on: SLC29A2 (ENT2); assay: as above; type: cell-based; conditions: SCHH, 72 h; TCDD 50 nM, OP 50 µM, CITCO 5 µM, PB 1,000 µM (highest conc.); mean ± SD, three donors
Text: as §3

[10] = tested on: SLC22A9 (OAT7); assay: as above; type: cell-based; conditions: SCHH, 72 h; TCDD 50 nM, OP 50 µM, CITCO 5 µM, PB 1,000 µM (highest conc.); mean ± SD, three donors
[11] = tested on: SLC22A1 (OCT1); assay: as above; type: cell-based
Protocol: as §1, §2

[12] = tested on: ABCB1 (MDR1); assay: as above; type: cell-based
Protocol: as §1, §2

[13] = tested on: ABCC3 (MRP3); assay: as above; type: cell-based
Protocol: as §1, §2

[14] = tested on: ABCG2 (BCRP); assay: as above; type: cell-based
Protocol: as §1, §2

[15] = tested on: SLCO1B3 (OATP1B3); assay: as above; type: cell-based
Protocol: as §1, §2

[16] = tested on: ABCC5 (MRP5); assay: as above; type: cell-based
Protocol: as §1, §2

[17] = tested on: SLCO2B1 (OATP2B1); assay: as above; type: cell-based
Protocol: as §1, §2

[18] = tested on: ABCC6 (MRP6); assay: as above; type: cell-based
Protocol: as §1, §2

[19] = tested on: SLCO1B1 (OATP1B1); assay: as above; type: cell-based
Protocol: as §1, §2

[20] = tested on: ABCC4 (MRP4); assay: as above; type: cell-based
Protocol: as §1, §2

[21] = tested on: ABCB11 (BSEP); assay: as above; type: cell-based
Protocol: as §1, §2

[22] = tested on: ABCC2 (MRP2); assay: as above; type: cell-based
Protocol: as §1, §2

[23] = tested on: CYP2B6; assay: in vitro; conditions: human
Protocol: as §1
as §2, with “The 2^−ΔΔCt method ([Livak and Schmittgen, 2001]) was used to analyze the relative changes in gene expression, where the Ct is the cycle number at which the fluorescence in the reaction crosses the preset arbitrary threshold; the ΔCt represents the difference between the Ct target and reference and the ΔΔCt is the difference between the ΔCt of the test and the ΔCt of the preassigned control.” left out

[24] = tested on: CYP3A4; assay: in vitro; conditions: human
Protocol: as §1
as §2, with “The 2^−ΔΔCt method ([Livak and Schmittgen, 2001]) was used to analyze the relative changes in gene expression, where the Ct is the cycle number at which the fluorescence in the reaction crosses the preset arbitrary threshold; the ΔCt represents the difference between the Ct target and reference and the ΔΔCt is the difference between the ΔCt of the test and the ΔCt of the preassigned control.” left out

[25] = tested on: SLC15A1 (PEPT1); assay: gene induction in sandwich-cultured human hepatocytes (qRT-PCR); type: cell-based; conditions: SCHH, 72 h; TCDD 50 nM, OP 50 µM, CITCO 5 µM, PB 1,000 µM (highest conc.); mean ± SD, three donors
Text: as §3

## CCC1(c2ccccc2)C(=O)NC(=O)NC1=O [PB, phenobarbital]
[1]
  UGT1A1 mRNA fold change: 4.2 fold and 4.2 ± 1.9 fold
[1]; human
  EC50: 639 ± 444 µM
[2]
  SLC22A7 (OAT2) mRNA fold change: 0.5 ± 0.2 fold
[3]
  SLC29A1 (ENT1) mRNA fold change: 0.9 ± 0.2 fold
[4]
  CYP1A2 mRNA fold change: 1.3 ± 0.4 fold
[5]
  SLC22A5 (OCTN2) mRNA fold change: 0.8 ± 0.3 fold
[6]
  SLC51A (OSTα) mRNA fold change: 0.9 ± 0.2 fold
[7]
  SLC10A1 (NTCP) mRNA fold change: 1.4 ± 0.7 fold
[8]
  SLC16A1 (MCT1) mRNA fold change: 1.1 ± 0.2 fold
[9]
  SLC29A2 (ENT2) mRNA fold change: 0.9 ± 0.3 fold
[10]
  SLC22A9 (OAT7) mRNA fold change: 0.6 ± 0.2 fold
[11]
  SLC22A1 (OCT1) mRNA fold change: 1.5 ± 0.6 fold
[12]
  ABCB1 (MDR1) mRNA fold change: 1.3 ± 0.6 fold
[13]
  ABCC3 (MRP3) mRNA fold change: 1.0 ± 0.4 fold
[14]
  ABCG2 (BCRP) mRNA fold change: 1.6 ± 0.3 fold
[15]
  SLCO1B3 (OATP1B3) mRNA fold change: 0.9 ± 0.2 fold
[16]
  ABCC5 (MRP5) mRNA fold change: 1.2 ± 0.4 fold
[17]
  SLCO2B1 (OATP2B1) mRNA fold change: 1.8 ± 0.9 fold
[18]
  ABCC6 (MRP6) mRNA fold change: 1.3 ± 0.3 fold
[19]
  SLCO1B1 (OATP1B1) mRNA fold change: 1.5 ± 0.8 fold
[20]
  ABCC4 (MRP4) mRNA fold change: 1.8 ± 0.4 fold
[21]
  ABCB11 (BSEP) mRNA fold change: 1.1 ± 0.3 fold
[22]
  ABCC2 (MRP2) mRNA fold change: 1.5 ± 0.3 fold
[23]
  EC50 at 72 h: 726 ± 655 µM
[24]
  EC50: 343 µM
[25]
  SLC15A1 (PEPT1) mRNA fold change: 1.1 ± 0.5 fold
